Converted amounts (≈) assume the structure as drawn.
Tests used:
[1] = octanol/water, pH 7.4
in vitro [2] = details: human, Caco-2
[3] = target: Voltage-gated inwardly rectifying potassium channel KCNH2 (Homo sapiens, UniProt Q12809)
[4] = Volume of distribution at steady state in Sprague-Dawley rat plasma at 3.9 mg/kg, iv up to 24 hrs by LC-MS analysis; format: ADME, organism-based; details: read-out: Vdss
[5] = Clearance in Balb/C mouse blood at 2.6 mg/kg, iv up to 24 hrs by LC-MS analysis; format: ADME, organism-based; details: whole blood
[6] = Apparent half life in Balb/C mouse at 2.6 mg/kg, iv up to 24 hrs by LC-MS analysis; format: ADME, organism-based; details: in vivo, read-out: t1/2(app) (converted)
[7] = Volume of distribution at steady state in Sprague-Dawley rat blood at 3.9 mg/kg, iv up to 24 hrs by LC-MS analysis; format: ADME, organism-based; details: whole blood, read-out: Vdss
in vitro [8] = details: Balb/C, mouse, plasma; at 1 µg/mL
in vitro [9] = details: human, Caco-2; remark: listed apart in the source
in vivo = details: Balb/C, mouse, po, at 1.9 to 3.5 mg/kg
[10] = Clearance in Sprague-Dawley rat blood at 3.9 mg/kg, iv up to 24 hrs by LC-MS analysis; format: ADME, organism-based; details: whole blood
[11] = Drug excretion in Sprague-Dawley rat urine at 3.9 mg/kg, iv up to 24 hrs by LC-MS analysis; format: ADME, organism-based; details: read-out: Drug excretion
cells = details: Homo sapiens, HEK293, 10 min
physchem [12] = details: PBS, pH 6.5, pH 6.5
in vitro [13] = details: mouse, liver microsomes
[14] = mouse, microsomes, 1 h, 1 µM
in vitro [15] = details: human, liver microsomes
physchem [16] = details: HCl, pH 2, pH 2
[17] = Volume of distribution at steady state in Balb/C mouse blood at 2.6 mg/kg, iv up to 24 hrs by LC-MS analysis; format: ADME, organism-based; details: whole blood, read-out: Vdss
[18] = Half life in Sprague-Dawley rat at 3.9 mg/kg, iv up to 24 hrs by LC-MS analysis; format: ADME, organism-based; details: in vivo
[19] = Ratio of drug level in blood to plasma in Sprague-Dawley rat at 3.9 mg/kg, iv up to 24 hrs by LC-MS analysis by LC-MS analysis; format: ADME, organism-based; details: whole blood and plasma
in vitro [20] = details: human, liver microsomes; remark: listed apart in the source
[21] = Ratio of drug level in blood to plasma in Balb/C mouse plasma at 2.6 mg/kg, iv up to 24 hrs by LC-MS analysis; format: ADME, organism-based; details: blood and plasma
in vitro [22] = details: Balb/C, mouse, plasma; at 1 µg/mL; remark: listed apart in the source
[23] = AUC(0 to infinity) in Sprague-Dawley rat plasma at 3.9 mg/kg, iv up to 24 hrs by LC-MS analysis; format: ADME, organism-based; design: route intravenous, dose 3.9 mg/kg, time <=24
[24] = mouse, blood, 2 h; at 1 µg/mL
[25] = Volume of distribution at steady state in Balb/C mouse plasma at 2.6 mg/kg, iv up to 24 hrs by LC-MS analysis; format: ADME, organism-based; details: read-out: Vdss
[26] = AUC(0 to infinity) in Balb/C mouse plasma at 2.6 mg/kg, iv up to 24 hrs by LC-MS analysis; format: ADME, organism-based; design: route intravenous, dose 2.6 mg/kg, time <=24
[27] = Clearance in Sprague-Dawley rat renal blood at 3.9 mg/kg, iv up to 24 hrs by LC-MS analysis; format: ADME, organism-based; details: whole blood
[28] = target: Sodium channel protein type 5 subunit alpha (Homo sapiens, UniProt Q14524)
in vitro [29] = details: human, Caco-2; remark: listed apart in the source
[30] = Plasma clearance in Balb/C mouse at 2.6 mg/kg, iv up to 24 hrs by LC-MS analysis; format: ADME, organism-based
[31] = human, microsomes, 1 h, 1 µM
in vitro [32] = details: human, Caco-2; remark: listed apart in the source
in vitro [33] = details: mouse, liver microsomes; remark: listed apart in the source
in vitro [34] = details: human, Caco-2; remark: listed apart in the source
[35] = Plasma clearance in Sprague-Dawley rat at 3.9 mg/kg, iv up to 24 hrs by LC-MS analysis; format: ADME, organism-based
[36] = Drug metabolism in Sprague-Dawley rat at 3.9 mg/kg, iv by LC-MS analysis; format: ADME, organism-based; details: in vivo
[37] = Drug excretion in Sprague-Dawley rat urine at 2.5 mg/kg, iv up to 24 hrs by LC-MS analysis; format: ADME, organism-based; details: read-out: Drug excretion
[38] = Drug metabolism in Sprague-Dawley rat assessed amiloride formation at 2.5 mg/kg, iv after 4.8 mins by LC-MS analysis; format: ADME, organism-based; details: in vivo, 0.08 h
[39] = Clearance in Balb/C mouse blood at 2.5 mg/kg, iv up to 24 hrs by LC-MS analysis; format: ADME, organism-based; details: whole blood
[40] = Apparent half life in Balb/C mouse at 2.5 mg/kg, iv up to 24 hrs by LC-MS analysis; format: ADME, organism-based; details: in vivo, read-out: t1/2(app) (converted)
[41] = Volume of distribution at steady state in Sprague-Dawley rat plasma at 2.5 mg/kg, iv up to 24 hrs by LC-MS analysis; format: ADME, organism-based; details: read-out: Vdss
[42] = AUC(0 to infinity) in Sprague-Dawley rat plasma at 2.5 mg/kg, iv up to 24 hrs by LC-MS analysis; format: ADME, organism-based; design: route intravenous, dose 2.5 mg/kg, time <=24
[43] = Ratio of drug level in blood to plasma in Sprague-Dawley rat at 2.5 mg/kg, iv up to 24 hrs by LC-MS analysis by LC-MS analysis; format: ADME, organism-based; details: blood and plasma
[44] = Plasma clearance in Balb/C mouse at 2.5 mg/kg, iv up to 24 hrs by LC-MS analysis; format: ADME, organism-based
[45] = Half life in Sprague-Dawley rat at 2.5 mg/kg, iv up to 24 hrs by LC-MS analysis; format: ADME, organism-based; details: in vivo
[46] = Clearance in Sprague-Dawley rat renal blood at 2.5 mg/kg, iv up to 24 hrs by LC-MS analysis; format: ADME, organism-based; details: whole blood
[47] = Ratio of drug level in blood to plasma in Balb/C mouse plasma at 2.5 mg/kg, iv up to 24 hrs by LC-MS analysis; format: ADME, organism-based; details: whole blood and plasma
[48] = Clearance in Sprague-Dawley rat blood at 2.5 mg/kg, iv up to 24 hrs by LC-MS analysis; format: ADME, organism-based; details: whole blood
[49] = Volume of distribution at steady state in Balb/C mouse blood at 2.5 mg/kg, iv up to 24 hrs by LC-MS analysis; format: ADME, organism-based; details: whole blood, read-out: Vdss
[50] = Volume of distribution at steady state in Balb/C mouse plasma at 2.5 mg/kg, iv up to 24 hrs by LC-MS analysis; format: ADME, organism-based; details: read-out: Vdss
[51] = Plasma clearance in Sprague-Dawley rat at 2.5 mg/kg, iv up to 24 hrs by LC-MS analysis; format: ADME, organism-based
[52] = Volume of distribution at steady state in Sprague-Dawley rat blood at 2.5 mg/kg, iv up to 24 hrs by LC-MS analysis; format: ADME, organism-based; details: whole blood, read-out: Vdss
[53] = AUC(0 to infinity) in Balb/C mouse plasma at 2.5 mg/kg, iv up to 24 hrs by LC-MS analysis; format: ADME, organism-based; design: route intravenous, dose 2.5 mg/kg, time <=24

Chain of Sodium channel protein type 5 subunit alpha (Q14524 whole entry): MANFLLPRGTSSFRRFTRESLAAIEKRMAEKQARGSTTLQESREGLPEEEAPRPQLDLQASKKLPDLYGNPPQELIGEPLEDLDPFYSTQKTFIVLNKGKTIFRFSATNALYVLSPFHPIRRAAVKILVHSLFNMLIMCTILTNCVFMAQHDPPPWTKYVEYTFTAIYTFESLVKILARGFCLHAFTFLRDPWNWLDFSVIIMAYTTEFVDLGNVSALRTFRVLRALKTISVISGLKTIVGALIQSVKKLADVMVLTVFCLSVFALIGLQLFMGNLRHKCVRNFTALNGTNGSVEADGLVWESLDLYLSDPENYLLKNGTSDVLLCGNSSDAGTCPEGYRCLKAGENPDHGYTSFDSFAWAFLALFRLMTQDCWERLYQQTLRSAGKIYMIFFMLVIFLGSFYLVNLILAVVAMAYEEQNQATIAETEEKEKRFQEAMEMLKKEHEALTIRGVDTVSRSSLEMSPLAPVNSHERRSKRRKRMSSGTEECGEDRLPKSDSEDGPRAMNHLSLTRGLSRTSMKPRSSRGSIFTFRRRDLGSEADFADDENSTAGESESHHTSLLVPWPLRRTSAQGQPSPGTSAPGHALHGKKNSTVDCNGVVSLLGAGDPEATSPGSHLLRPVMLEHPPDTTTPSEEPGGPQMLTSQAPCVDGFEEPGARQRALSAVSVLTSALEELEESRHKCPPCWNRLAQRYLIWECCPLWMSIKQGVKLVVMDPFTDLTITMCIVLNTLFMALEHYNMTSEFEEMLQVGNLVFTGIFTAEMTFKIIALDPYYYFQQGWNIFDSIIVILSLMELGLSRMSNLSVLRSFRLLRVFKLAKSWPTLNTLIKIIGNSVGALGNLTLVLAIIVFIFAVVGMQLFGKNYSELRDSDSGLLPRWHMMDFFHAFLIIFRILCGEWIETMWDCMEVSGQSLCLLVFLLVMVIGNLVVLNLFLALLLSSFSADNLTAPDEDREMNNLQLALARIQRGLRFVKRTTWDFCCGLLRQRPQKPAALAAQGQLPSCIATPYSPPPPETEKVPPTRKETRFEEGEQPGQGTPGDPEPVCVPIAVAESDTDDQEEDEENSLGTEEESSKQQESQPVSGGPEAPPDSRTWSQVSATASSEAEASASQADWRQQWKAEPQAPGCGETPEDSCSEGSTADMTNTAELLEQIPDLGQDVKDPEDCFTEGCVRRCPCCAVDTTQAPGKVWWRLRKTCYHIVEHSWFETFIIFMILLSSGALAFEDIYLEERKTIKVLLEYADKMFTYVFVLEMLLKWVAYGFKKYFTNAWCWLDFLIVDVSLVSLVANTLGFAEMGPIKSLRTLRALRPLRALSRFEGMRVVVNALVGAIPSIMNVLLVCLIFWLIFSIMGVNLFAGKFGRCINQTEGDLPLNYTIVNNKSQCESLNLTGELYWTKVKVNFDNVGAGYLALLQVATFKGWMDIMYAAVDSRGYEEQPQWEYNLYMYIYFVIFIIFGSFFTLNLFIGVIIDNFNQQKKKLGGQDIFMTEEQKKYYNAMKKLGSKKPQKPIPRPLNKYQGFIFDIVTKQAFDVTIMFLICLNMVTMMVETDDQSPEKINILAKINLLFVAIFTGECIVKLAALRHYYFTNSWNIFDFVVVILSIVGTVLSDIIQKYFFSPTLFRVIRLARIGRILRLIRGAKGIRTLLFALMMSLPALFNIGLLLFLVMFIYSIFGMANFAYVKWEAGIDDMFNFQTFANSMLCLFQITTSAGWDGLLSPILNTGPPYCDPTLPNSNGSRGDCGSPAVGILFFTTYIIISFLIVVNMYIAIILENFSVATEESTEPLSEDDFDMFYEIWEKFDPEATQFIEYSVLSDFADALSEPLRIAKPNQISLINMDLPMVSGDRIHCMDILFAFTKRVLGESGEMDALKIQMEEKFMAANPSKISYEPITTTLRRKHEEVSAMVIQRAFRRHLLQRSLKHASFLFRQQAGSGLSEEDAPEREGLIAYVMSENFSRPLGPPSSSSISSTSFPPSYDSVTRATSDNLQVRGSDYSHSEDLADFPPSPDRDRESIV
Chain of Voltage-gated inwardly rectifying potassium channel KCNH2 (Q12809 whole entry): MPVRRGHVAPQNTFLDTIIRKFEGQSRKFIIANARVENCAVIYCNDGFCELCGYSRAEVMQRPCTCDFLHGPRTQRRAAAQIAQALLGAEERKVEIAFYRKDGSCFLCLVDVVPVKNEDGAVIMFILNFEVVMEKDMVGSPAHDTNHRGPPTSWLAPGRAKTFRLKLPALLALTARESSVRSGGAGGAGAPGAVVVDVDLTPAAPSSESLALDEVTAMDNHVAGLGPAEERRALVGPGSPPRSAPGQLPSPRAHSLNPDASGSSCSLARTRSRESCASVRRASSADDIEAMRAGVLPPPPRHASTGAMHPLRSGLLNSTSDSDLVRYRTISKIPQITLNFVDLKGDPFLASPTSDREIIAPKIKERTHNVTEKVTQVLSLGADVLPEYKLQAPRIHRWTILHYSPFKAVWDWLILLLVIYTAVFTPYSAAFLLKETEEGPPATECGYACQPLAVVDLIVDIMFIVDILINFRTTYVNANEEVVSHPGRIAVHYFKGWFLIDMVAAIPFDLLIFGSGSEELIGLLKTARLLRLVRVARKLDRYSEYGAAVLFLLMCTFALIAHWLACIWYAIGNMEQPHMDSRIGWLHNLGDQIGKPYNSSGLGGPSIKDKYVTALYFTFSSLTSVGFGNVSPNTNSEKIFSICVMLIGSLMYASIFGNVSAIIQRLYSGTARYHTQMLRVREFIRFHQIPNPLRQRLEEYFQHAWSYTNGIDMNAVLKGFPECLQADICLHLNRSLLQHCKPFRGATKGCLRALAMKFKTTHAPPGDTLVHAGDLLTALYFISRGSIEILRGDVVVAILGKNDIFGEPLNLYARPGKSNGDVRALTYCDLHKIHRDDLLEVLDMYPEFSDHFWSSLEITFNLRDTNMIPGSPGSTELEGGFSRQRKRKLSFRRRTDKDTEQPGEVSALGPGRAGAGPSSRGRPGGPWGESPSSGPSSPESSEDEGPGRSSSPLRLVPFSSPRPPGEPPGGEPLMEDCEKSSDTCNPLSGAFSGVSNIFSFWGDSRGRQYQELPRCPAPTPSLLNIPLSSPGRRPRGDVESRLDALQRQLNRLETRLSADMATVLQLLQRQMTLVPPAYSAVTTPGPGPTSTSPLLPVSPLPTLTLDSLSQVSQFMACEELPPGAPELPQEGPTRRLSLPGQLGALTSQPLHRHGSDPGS

Compound	logD [1]	recovery at 2 h, 20 µM (in vitro [2]) [%]	IC50 [3] [µM]	fraction unbound at […], 1 ug/ml (in vitro [8])	recovery at 2 h, 20 µM (in vitro [9]) [%]	bioavailability at 24 h (in vivo) [%]	IC50 (cells) [µM]	solubility kinetic (physchem [12]) [µg/mL]	half-life at 1 h, 1 µM (in vitro [13]) [h]	CL free [14] [µL/min/mg]	microsomal CLint at 1 h, 1 µM (in vitro [15]) [µL/min/mg]	solubility kinetic (physchem [16]) [µg/mL]	half-life at 1 h, 1 µM (in vitro [20]) [h]	metabolised at 4 h, 1 ug/ml (in vitro [22]) [%]	Stabilty [24]	IC50 [28] [µM]	Papp A→B at 2 h, 20 µM (in vitro [29]) [×10⁻⁶ cm/s]	CL free [31] [µL/min/mg]	Papp B→A at 2 h, 20 µM (in vitro [32]) [×10⁻⁶ cm/s]	microsomal CLint at 1 h, 1 µM (in vitro [33]) [µL/min/mg]	other results
N=C(N)NC(=O)c1nc(-c2cc3ccccc3o2)c(N2CCCCCC2)nc1N	5.1	29	< 3	0.02	76	< 5	< 3	1.6 (≈ 4.07 µM)	0.4	888	26	12.5 (≈ 31.8 µM)	1.13	< 6	Unstable	< 3	0.3	888	12	73	Vd [4]: 12.4 L/kg; clearance [5]: 53 mL/min/kg; half-life [6]: 1.7 h; Vd [7]: 8.6 L/kg; clearance [10]: 39.5 mL/min/kg; dose excreted at 24 h [11]: 0.02%; Vd [17]: 1.7 L/kg; half-life [18]: 7 h; blood plasma ratio at 24 h [19]: 1.4; blood plasma ratio at 24 h [21]: 1.4; AUC(0-inf) [23]: 2.9 µM·h; Vd [25]: 2.3 L/kg; AUC(0-inf) [26]: 1.6 µM·h; CL renal at 24 h [27]: 0.01 mL/min/kg; clearance [30]: 71 mL/min/kg; efflux ratio at 2 h, 20 µM (in vitro [34]): 40; clearance [35]: 56.9 mL/min/kg; Drug metabolism [36]: Metabolite_Notdetected
N=C(N)NC(=O)c1nc(Cl)c(N2CCCCCC2)nc1N [N,N-HEXAMETHYLENEAMILORIDE]	3.8	79	3.3	0.03	100	4.5	8.3	50 (≈ 160 µM)	0.04	2243	24	> 100	1.22	< 6	Unstable	30	15	74	56	726	dose excreted at 24 h [37]: 0.5%; Drug metabolism [38]: Metabolite_Detected; clearance [39]: 59 mL/min/kg; half-life [40]: 0.62 h; Vd [41]: 5.3 L/kg; AUC(0-inf) [42]: 1.6 µM·h; blood plasma ratio at 24 h [43]: 1.8; clearance [44]: 86 mL/min/kg; half-life [45]: 3.2 h; CL renal at 24 h [46]: 0.2 mL/min/kg; blood plasma ratio at 24 h [47]: 1.5; clearance [48]: 46.2 mL/min/kg; Vd [49]: 1.4 L/kg; Vd [50]: 2 L/kg; clearance [51]: 83.5 mL/min/kg; Vd [52]: 2.9 L/kg; efflux ratio at 2 h, 20 µM (in vitro [34]): 3.8; AUC(0-inf) [53]: 1.5 µM·h

Reference: ChEMBL document CHEMBL4732263 (Bioorg Med Chem, 2021)
